In US8377918B2 (ACC Therapeutics Inc, priority 2005, dated 2013):

Tests used:
PC-3 cells = assay: MTT cell proliferation assay, PC-3 prostate cancer cells; format: cell-based, human; conditions: 24 h
Protocol: (§1) FIG. 8. […] Prostate cancer cells PC-3 and DU145 were seeded in 96-well plates at 1×10^4 cells/well. […] The cell proliferation was assayed by culturing the cells for 24 h, then adding 10 μl of MTT reagent with incubation for 2 h. The reaction was stopped by adding 100 μl of solubilization solution. The relative cell proliferation was obtained by the reading at 590 nm which was recorded in a spectrophotometer, and normalized to the value of control.
FIG. 9. […] A, Cisplatin-resistant ovarian cancer cell line A2780/CP70, and B, prostate cancer cells PC-3 were seeded in 96-well plates at 1×10^4 cells/well and incubated overnight.
(§2) FIG. 17. […] A, the prostate cancer cells PC-3 and DU145; B, colon cancer cells Colo-205 and HCT-116; C, lung cancer cells A549 and H460 cells were plated at 1×10^4 cells per well in a 96 well plate in 100 μl of media.
FIG. 18. […] A and B, the prostate cancer cells PC-3 and DU145; C, colon cancer cells Colo-205 and HCT-116; D, lung cancer cells A549 and H460 cells were plated at 1×10^4 cells per well in a 96 well plate in 100 μl of media. […] The cell proliferation was analyzed by MTT assay.
(§3) FIG. 19. […] A, prostate cancer cells PC-3; and B, DU145 cells were plated at 1×10^4 cells per well in a 96 well plate in 100 μl of media. […] Cell proliferation was examined by MTT assay.
(§4) FIG. 23. […] Cell proliferation was examined by MTT assay.

DU145 cells = assay: MTT cell proliferation assay, DU145 prostate cancer cells; format: cell-based, human; conditions: 24 h
Protocol: as §1, §2, §3
FIG. 21. […] A, the prostate cancer cells PC-3 and DU145; B and C, colon cancer cells Colo-205 and HCT-116 were plated at 1×10^4 cells per well in a 96 well plate in 100 μl of media a day before the treatment.
as §4

A549 cells = assay: MTT cell proliferation assay, A549 lung cancer cells; format: cell-based, human; conditions: A549, apigenin alone, 24 h
Protocol: as §2

A2780/CP70 cells = assay: Annexin V apoptosis assay, A2780/CP70; format: cell-based, human; conditions: 24 h
Protocol: FIG. 1. […] (A) A2780/CP70 cells and human fibroblast GM847 cells were seeded in 96-well plate at 4×10^3 cells per well and incubated overnight. […] The cells were incubated for 24 h. Cell proliferation was determined by MTT reduction. […] Cells were trypsinized, harvested, washed once with PBS buffer, and stained using the Annexin-V-Folus Kit as per the manufacture's instructions. […] After incubation, all cells were collected and total DNA was isolated. Eight (8) μg of DNA was resolved on 1.8% agarose gel. […] (D) Treatment of GM847 cells was the same as that of 5D. […] Cleavage of caspase-3 and PARP was detected by western-blot.
FIG. 10. […] The cisplatin-resistant ovarian cancer A2780/CP70 cells were seeded in a petri dish. […] After treatment, the cells were collected and the relative cellular apoptosis was analyzed by Annexin V Kit (Roche), and compared to the control.

[1] = tested on: tumors induced by A2780/CP70 cells; assay: Blood vessel numbers of A2780/CP70 tumors on CAM; format: in vivo, chicken embryo; conditions: 10 μM apigenin or 2.5 μM CDDP+10 μM apigenin, 10 days
Protocol: FIG. 4. […] The A2780/CP70 cells were seeded into 100 mm dish and grown to 90-100% confluence. […] In 10 days, the tumors were harvested and weighed. The blood vessel numbers of the tumor were counted under×100. At least five areas were determined. The data are mean±SD from two experiments (n=8). A, representative tumor morphology; B, tumor weight; C, relative numbers of blood vessels.

[2] = tested on: HIF-1 expression in A2780/CP70 cells; assay: HIF-1 immunoblotting, A2780/CP70; format: cell-based, human
Excerpt: FIG. 5. […] The cells treated with solvent alone were used as a control. HIF-1α and HIF-1β protein levels were detected by immunoblotting as described in Materials and Methods. GAPDH was used as an internal control to test the loading and transfer efficiency.

[3] = tested on: VEGF expression in A2780/CP70 cells; assay: VEGF ELISA of supernatants, A2780/CP70; format: cell-based, human; conditions: A2780/CP70, 15 h
Protocol: FIG. 6. […] OVCAR-3 and A2780/CP70 cells were plated in 12-well plates and cultured to 90% confluence. […] The concentrations of VEGF in the supernatants were determined by ELISA method as described in Materials and Methods. The data are mean±SE from three independent experiments and each experiment was performed with triplicate cultures.

A549 tumors = assay: A549 tumor growth in nude mice; format: in vivo; conditions: 3 mg/kg intraperitoneal three times a week, day 40
Protocol: FIG. 15. […] Each treatment group contained 10 mice. […] The mice were euthanized on day 40. A, representative tumors from the control and apigenin-treated groups. Scale bar, 1 cm. B, tumor volumes were measured by the width and length of tumors from 10 mice in each treatment when tumors were visible. The mean±S.D. were obtained from 10 mice. C, the tumors were removed from mice, measured by the width and length, and analyzed as above. D, the mean±S.D. of the tumor weight. *, significant difference when compared with the solvent control (p<0.05).

[4] = tested on: A549 cell-induced tumor angiogenesis; assay: A549 Matrigel plug angiogenesis in nude mice; format: in vivo; conditions: 15 μM apigenin in plug, 15 days
Protocol: FIG. 16. […] Each treatment group contained four mice. The mice were euthanized 15 days after implantation. Representative Matrigel plugs from the solvent- and apigenin-treated groups. C, D, the relative angiogenesis was analyzed by the levels of RBC hemoglobin, a surrogate marker, in the Matrigel plugs. The hemoglobin content was analyzed by adding 1×RBC lysis buffer (1 mM EDTA and 5 mM potassium/sodium phosphate buffer, pH 8-8.5) to a plug, followed by incubation at 4° C. overnight. Hemoglobin levels were determined by the Drabkin method by a commercial assay kit (Sigma) according to the manufacturer's instruction with some modification. […] Relative hemoglobin content is the hemoglobin level (milligrams) divided by the final volume of each plug. The data are the mean±S.E. of eight Matrigel plugs for each experiment. *, significant difference compared with the solvent control (p<0.05).

endothelial cells = assay: Tube formation in vitro; format: cell-based

O=c1cc(-c2ccc(O)cc2)oc2cc(O)cc(O)c12 [apigenin, 4′,5,7,-trihydroxyflavone]
effect on sensitivity to etoposide treatment (PC-3 cells; PC-3, 15 μM apigenin): increased the sensitivity
effect on cell proliferation (PC-3 cells; PC-3, apigenin alone): inhibited
effect on sensitivity to etoposide treatment (DU145 cells; DU145, 15 μM apigenin): increased the sensitivity
effect on cell proliferation (DU145 cells; DU145, apigenin alone): inhibited
effect on cell proliferation (A549 cells): inhibited the proliferation
cells undergoing apoptosis (A2780/CP70 cells; A2780/CP70, 10 μM apigenin or 10 μM apigenin plus 10 μM cisplatin): 12%
induction of apoptosis (A2780/CP70 cells; A2780/CP70, apigenin alone): specifically induced apoptosis
inhibition of blood vessel formation (angiogenesis) [1]: 35%
effect on HIF-1 expression [2]: inhibited HIF-1 expression
effect on expression of VEGF [3]: inhibited the expression of VEGF
effect on tumor growth in vivo (A549 tumors): inhibited tumor growth in vivo
effect on tumor angiogenesis (hemoglobin content of Matrigel plugs) [4]: inhibited A549 cell-induced tumor angiogenesis
effect on tube formation (endothelial cells): inhibited tube formation
